The subject of one series is HBV. Description: anti HBV activity, HepG2.117 inducibly HBV producing cell line (Tet-off), intracellular HBV DNA by realtime PCR. In kind it is cell-based. The following applies: Hepatitis B virus, 72 h, HepG2.117 cells, 3 days of treatment.
Series [1] in a line: Cytotoxicity, HepG2 cells, Resazurin assay. The format is cell-based. The following applies: human. Background: Resazurin is reduced to fluorescent resorufin, in cell work by metabolically active cells.
The nature of series [2]: ATP based toxicity assay (ATPlite), HepG2 cell line. The following applies: human, HepG2 cells, ATPlite (ATP levels). The protocol:
Alternatively, cytotoxicity was determined via an ATP-assay: The ATPlite kit from Perkin Elmer was used to assess compound cytotoxicity on the HepG2 cell line by determination of the ATP (adenosine triphosphate) levels. ATP is a marker for functional integrity and cell viability, because it is present in all metabolically active cells and any form of cell injury will result in a rapid decline in cellular ATP concentration. After compound incubation, 1 volume of ATPlite solution was added to the cells and the luminescence signal was measured.
(Cellular ATP, detected with luciferase, serves as a proxy for viable cell number.)

By EC50 is commonly meant the concentration giving half of the maximal effect. A lower EC50 goes with an effect from little substance. The CC50 is the concentration at which the toxic effect on the cells reaches its halfway point. Lower therefore signals greater toxicity to the cells.

On to `Cc1cc(NC(=O)c2c(F)c(S(=O)(=O)NC3(C)CC(F)(F)C3)cn2C)cc(F)n1` [Compound 134, 4-[(3,3-difluoro-1-methyl-cyclobutyl)sulfamoyl]-3-fluoro-N-(2-fluoro-6-methyl-4-pyridyl)-1-methyl-pyrrole-2-carboxamide], for which the EC50 in the series with HBV stood at 0.01 µM. Moreover, the cytotoxic concentration (CC50) at 4 days in series [1] and in series [2] was above 25 µM in each case.
As to `Cc1cc(NC(=O)c2c(F)c(S(=O)(=O)NC3(C(F)(F)F)CCC3)cn2C)cc(F)n1` [Compound 172, 3-fluoro-N-(2-fluoro-6-methyl-4-pyridyl)-1-methyl-4-[[1-(trifluoromethyl)cyclobutyl]sulfamoyl]pyrrole-2-carboxamide], in the series with HBV, it took 0.01 µM to reach a half-maximal effect (EC50). In addition, the CC50 at 4 days in series [1] and in series [2] was above 25 µM throughout.
On to `Cc1c(S(=O)(=O)N[C@H](C)C(F)(F)F)c(F)c(C(=O)Nc2ccnc(Br)c2)n1C` [Compound 205, N-(2-bromo-4-pyridyl)-3-fluoro-1,5-dimethyl-[[(1R)-2,2,2-trifluoro-1-methyl-ethyl]sulfamoyl]pyrrole-2-carboxamide], for which it took 0.02 µM to reach a half-maximal effect in the series with HBV (EC50). The same molecule registered a CC50 at 4 days in series [2] above 25 µM.
Molecule `Cn1cc(S(=O)(=O)NC2(C(F)(F)F)COC2)c(F)c1C(=O)Nc1ccnc(C(F)F)c1F` [Compound 208, N-[2-(difluoromethyl)-3-fluoro-4-pyridyl]-3-fluoro-1-methyl-4-[[3-(trifluoromethyl)oxetan-3-yl]sulfamoyl]pyrrole-2-carboxamide] had an EC50 with HBV of 0.04 µM. Besides, the CC50 at 4 days in series [2] is above 25 µM.
For the molecule `Cn1cc(S(=O)(=O)NC2(C(F)(F)F)COC2)c(F)c1C(=O)Nc1ccnc(C(F)F)c1` [Compound 210], in the series with HBV, the half-maximal effective concentration (EC50) is 0.07 µM. Besides, the CC50 at 4 days in series [2] was above 25 µM.
As for `Cn1cc(S(=O)(=O)NC2(C)CC(F)(F)C2)c(F)c1C(=O)Nc1ccnc(C#N)c1F` [Compound 197, N-(2-cyano-3-fluoro-4-pyridyl)-4-[(3,3-difluoro-1-methyl-cyclobutyl)sulfamoyl]-3-fluoro-1-methyl-pyrrole-2-carboxamide], in the series on HBV, a half-maximal effect (EC50) was put at 0.01 µM. Also, the half-maximal cytotoxic concentration (CC50) at 4 days in series [2] is above 25 µM.
On to `Cn1cc(S(=O)(=O)NC2CCC2(F)F)c(F)c1C(=O)Nc1ccnc(Cl)c1` (centres unmarked) [Compound 174, N-(2-chloro-4-pyridyl)-4-[(2,2-difluorocyclobutyl)sulfamoyl]-3-fluoro-1-methyl-pyrrole-2-carboxamide], for which, in the series on HBV, the midpoint of the response, the EC50, lay at 0.11 µM. For the same molecule, the half-maximal cytotoxic concentration (CC50) at 4 days in series [2] was above 25 µM.
For the molecule `Cn1cc(S(=O)(=O)NC(C)(C)C(F)(F)F)c(F)c1C(=O)Nc1ccnc(C#N)c1` [Compound 188, N-(2-cyano-4-pyridyl)-3-fluoro-1-methyl-4-[(2,2,2-trifluoro-1,1-dimethyl-ethyl)sulfamoyl]pyrrole-2-carboxamide], the EC50 in the series with HBV was found to be 0.1 µM. The CC50 at 4 days in series [2] is above 25 µM.
With `C[C@@H](NS(=O)(=O)c1cn(C)c(C(=O)Nc2ccnc(CF)c2)c1Cl)C(F)(F)F` [Compound 145, 3-chloro-N-[2-(fluoromethyl)-4-pyridyl]-1-methyl-4-[[(1R)-2,2,2-trifluoro-1-methyl-ethyl]sulfamoyl]pyrrole-2-carboxamide], the half-maximal effective concentration (EC50) in the series with HBV amounted to 0.08 µM. The molecule also displayed a CC50 at 4 days in series [2] above 25 µM.
Take `Cn1cc(S(=O)(=O)NC2(C(F)(F)F)COC2)c(F)c1C(=O)Nc1ccnc(Cl)c1F` [Compound 212, N-(2-chloro-3-fluoro-4-pyridyl)-3-fluoro-1-methyl-4-[[3-(trifluoromethyl)oxetan-3-yl]sulfamoyl]pyrrole-2-carboxamide]: the response in the series on HBV was half-maximal at 0.06 µM (EC50). In series [2], the half-maximal cytotoxic concentration (CC50) at 4 days was above 25 µM.
The molecule `Cn1cc(S(=O)(=O)NC2(C(F)(F)F)CC2)c(F)c1C(=O)Nc1ccnc(Br)c1` [Compound 194, N-(2-bromo-4-pyridyl)-3-fluoro-1-methyl-4-[[1-(trifluoromethyl)cyclopropyl]sulfamoyl]pyrrole-2-carboxamide] showed an EC50 in the series with HBV of 0.02 µM. The molecule also gave a CC50 at 4 days in series [2] above 25 µM.
For the molecule `C[C@@H](NS(=O)(=O)c1cn(C)c(C(=O)Nc2ccnc(C(F)F)c2F)c1F)C(C)(F)F` [Compound 204, N-[2-(difluoromethyl)-3-fluoro-4-pyridyl]-4-[[(1R)-2,2-difluoro-1-methyl-propyl]sulfamoyl]-3-fluoro-1-methyl-pyrrole-2-carboxamide], in the series on HBV, the EC50 turned out to be 0.01 µM. Also, the CC50 at 4 days in series [2] is above 25 µM.
`Cn1cc(S(=O)(=O)NC2(C(F)(F)F)COC2)c(F)c1C(=O)Nc1ccnc(Cl)c1` [Compound 198] returned a concentration giving a half-maximal response (EC50) in the series on HBV of 0.09 µM. This molecule registered a CC50 at 4 days in series [2] above 25 µM.
In the series on HBV, `Cn1cc(S(=O)(=O)NC2(C)CC(F)(F)C2)c(Cl)c1C(=O)Nc1ccnc(C#N)c1F` [Compound 162, 3-chloro-N-(2-cyano-3-fluoro-4-pyridyl)-4-[(3,3-difluoro-1-methyl-cyclobutyl)sulfamoyl]-1-methyl-pyrrole-2-carboxamide] showed an EC50 of 0.02 µM. The 50% cytotoxic concentration (CC50) at 4 days in series [2] is above 25 µM.
`Cn1cc(S(=O)(=O)NC2(C)CC(F)(F)C2)c(F)c1C(=O)Nc1cc(Cl)nc(Cl)c1` [Compound 136, N-(2,6-dichloro-4-pyridyl)-4-[(3,3-difluoro-1-methyl-cyclobutyl)sulfamoyl]-3-fluoro-1-methyl-pyrrole-2-carboxamide] gave an EC50 with HBV of 0.02 µM. Further, the CC50 at 4 days in series [2] was found to be 9.5 µM.
The corresponding values for `Cn1cc(S(=O)(=O)NC(C)(C)C(F)(F)F)c(F)c1C(=O)Nc1cc(F)nc(F)c1` [Compound 189, N-(2,6-difluoro-4-pyridyl)-3-fluoro-1-methyl-4-[(2,2,2-trifluoro-1,1-dimethyl-ethyl)sulfamoyl]pyrrole-2-carboxamide] are 0.06 µM and above 25 µM.
The molecule `Cn1cc(S(=O)(=O)NC(C)(C)C(F)(F)F)c(F)c1C(=O)Nc1ccnc(C(F)F)c1` [Compound 190, N-[2-(difluoromethyl)-4-pyridyl]-3-fluoro-1-methyl-4-[(2,2,2-trifluoro-1,1-dimethyl-ethyl)sulfamoyl]pyrrole-2-carboxamide] had an EC50 in the series with HBV of 0.05 µM. The same molecule yielded a CC50 at 4 days in series [2] above 25 µM.
In turn, `Cn1cc(S(=O)(=O)NC(C)(C)C(F)(F)F)c(F)c1C(=O)Nc1ccnc(Br)c1` [Compound 191, N-(2-bromo-4-pyridyl)-3-fluoro-1-methyl-4-[(2,2,2-trifluoro-1,1-dimethyl-ethyl)sulfamoyl]pyrrole-2-carboxamide] came in with an EC50 in the series on HBV of 0.06 µM. This molecule also registered a CC50 at 4 days in series [2] above 25 µM.
The corresponding values for `Cn1cc(S(=O)(=O)NC2(C(F)(F)F)COC2)c(F)c1C(=O)Nc1cc(F)nc(F)c1` [Compound 211] are 0.05 µM and above 25 µM.
For the molecule `Cn1cc(S(=O)(=O)NC2(C(F)(F)F)COC2)c(F)c1C(=O)Nc1ccnc(Br)c1` [Compound 209, N-(2-bromo-4-pyridyl)-3-fluoro-1-methyl-4-[[3-(trifluoromethyl)oxetan-3-yl]sulfamoyl]pyrrole-2-carboxamide], the concentration for a half-maximal effect (EC50) with HBV stood at 0.09 µM. The molecule also returned a CC50 at 4 days in series [2] above 25 µM.
In the case of `Cn1cc(S(=O)(=O)NC2CCN(CC(F)(F)F)CC2)c(F)c1C(=O)Nc1ccnc(Cl)c1` [Compound 217, N-(2-chloro-4-pyridyl)-3-fluoro-1-methyl-4-[[1-(2,2,2-trifluoroethyl)-4-piperidyl]sulfamoyl]pyrrole-2-carboxamide], a half-maximal response in the series on HBV (EC50) required 0.46 µM. The half-maximal cytotoxic concentration (CC50) at 4 days in series [2] is above 25 µM.

(Values after patent US11078193B2 (priority 2014, dated 2021).)
